58 compounds from US12129248B2, “Chromobox protein inhibitors and uses thereof” (Dana-Farber Cancer Institute, Inc., priority 2016, dated 2024) can be followed below.

Values joined by “and” are separate entries in the source; they are usually repeats but may differ in a detail not shown here. Equal values may be shown once.

One experiment deals with Human His6-CBX7 (Homo sapiens (Human), UniProt O95931). The experiment in a line: CBX7 AlphaScreen assay (binding of CBX7 chromodomain to H3K27me3 peptide). As to conditions: average; His6-CBX7 / biotinylated-H3K27me3; read-out: AVG CBX7 Alpha IC50. From the text: A biochemical assay was developed based on nanoparticle AlphaScreen assay to monitor the binding of recombinant CBX chromodomain (CBX7) to a methylated peptide (H3K27me3).
Sequence of Human His6-CBX7 (O95931 11-69): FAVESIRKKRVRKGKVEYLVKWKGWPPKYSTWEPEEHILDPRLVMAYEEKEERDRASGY
The primary assay uses recombinant CBX chromodomain and synthetic, trimethylated H3 histone tail peptide. When CBX/histone tail-binding occurs, AlphaScreen beads are brought in close proximity, resulting in singlet molecular oxygen transfer and production of a luminescent signal. Assay positives inhibiting the binding interaction are therefore expected to prevent complex formation, diminishing signal intensity. The AlphaScreen technology features an anti-Stokes shift in detection: due to energy transfer between beads by singlet oxygen and internal chemical reactions within the acceptor bead, the emission wavelength is blue-shifted relative to the excitation wavelength, which is impossible in traditional fluorescent assays. The relatively long path length of 200 nm that singlet molecular oxygen can travel enables reporting on full protein complexes and not just single target binding. […] Neither the small molecules being tested nor the target protein, CBX7, need to be chemically, conformationally, or behaviorally altered by tethering them to a surface or reporter that may decrease physiological relevance and beget screening artifacts. The primary assay monitors binding of the chromodomain of CBX7 to a histone tail containing a trimethylated lysine at K27, the biologically relevant interaction through which PRC binds to chromatin to repress transcription. This is a robust proximity-based assay that utilizes AlphaScreen technology (PerkinElmer). The assay consists of His6-CBX7 bound to a Ni^++ acceptor bead and the biotinylated histone tail bound to a streptavadin donor bead. Upon CBX7/H3K27me3 binding, the steptavidin bead comes into proximity with the Ni^++ bead to luminesce upon light excitation ([…]; see below).
The protocol for the CBX7 AlphaScreen was as follows: a standard alpha buffer (50 mM HEPES, 150 mM NaCl, 0.1% w/v BSA, 0.01% w/v Tween20) at pH 8.0 and make up two stock solutions at 2× final concentration in the alpha buffer. Solution A contains Human His6-CBX7 is used with biotinylated-H3K27me3 (residues 20-34), at 100 nM and 50 nM respectively. Solution B contains 20 nM streptavidin donor beads and 20 nM nickel acceptor beads. For 384 well assay formats, 10 uL of solution A is added to each well of the assay plate and the plate is spun at 1000 rpm for 30 seconds. 100 nL of experimental compounds from stock plates are delivered by robotic pin transfer using a Janus Workstation (PerkinElmer), allowing the compounds to interact with CBX7 binding prior to assay measurement, followed by another spin and an incubation room temperature. Finally, 10 uL of solution B is added to each well, the plate is spun again and then incubated at room temperature. AlphaScreen measurements are performed on an Envision 2104 (PerkinElmer) utilizing the manufacturer's protocol that has the correct excitation and emission wavelengths, cutoff filters, delay time, etc. A crosstalk calculation is also done through the Envision software to correct for luminescence for adjacent wells while reading the plate. The signal is then normalized to DMSO control wells on the compound plate prior to creation of the IC50 curves.
Turning to `O=C(Nc1ccc(N2CCCC2)cc1)c1ccc2nc(-c3ccc(O)c(O)c3O)c(NCc3ccccc3)n2c1` [ACV-3-142, 3-(benzylamino)-N-(4-(pyrrolidin-1-yl)phenyl)-2-(2,3,4-trihydroxyphenyl)imidazo[1,2-a]pyridine-6-carboxamide], the 50% inhibitory concentration (IC50) came out at 0.66 µM.
Still for that read-out and setting: the figure for `O=C(N/N=C/c1c(O)cc(O)cc1O)c1cc(-c2ccco2)nc2ccccc12` [ACV-03] is 0.445 µM.
With `O=C(N/N=C/c1ccc(N2CCCC2)cc1)c1cc(-c2ccco2)nc2ccccc12` [ACV-05], the IC50 was 1.88 µM.
Turning to `CN(C)CCCOc1ccc(/C=N/NC(=O)c2cc(-c3ccco3)nc3ccccc23)cc1` [ACV-06], the IC50 amounted to 13.6 µM.
Still for that read-out and setting: with `O=C(O)c1cc(-c2ccco2)nc2ccccc12` [ACV-07 (2)] the figure was 194 µM.
The same measure, in the same setting: with `CN(C)c1ccc(CCNC(=O)c2cc(-c3ccco3)nc3ccccc23)cc1` [ACV-08] the figure was 10.3 µM; with `O=C(NCc1cccc(N2CCCC2)n1)c1cc(-c2ccco2)nc2ccccc12` [ACV-09], 7.39 µM; with `CN1CCN(c2ccc(NC(=O)c3cc(-c4ccco4)nc4ccccc34)cc2)CC1` [ACV-10], 20.2 µM.
Still for that read-out and setting: the figure for `O=C(O)c1cc(-c2ccco2)nc2ccc(Br)cc12` [ACV-11] is 8.51 µM.
Consider `CN(C)c1ccc(CC(CO)NC(=O)c2cc(-c3ccco3)nc3ccccc23)cc1` (stereo not drawn) [ACV-12, N-(1-(4-(dimethylamino)phenyl)-3-hydroxypropan-2-yl)-2-(furan-2-yl)quinoline-4-carboxamide], for which the IC50 turned out to be 6.1 µM.
On the same count and under the same terms, the figure for `O=C(Nc1ccc(CCN2CCCC2)cc1)c1cc(-c2ccco2)nc2ccccc12` [ACV-13] is 69.5 µM; for `O=C(CC1S/C(=N/N=C/c2cccnc2)NC1=O)Nc1ccc(N2CCCC2)cc1` (stereo not drawn) [ACV-14 (1)] it is 4.41 µM.
On the same count and under the same terms, the figure for `O=C(CC1S/C(=N/N=C/c2ccccn2)NC1=O)Nc1ccc(N2CCCC2)cc1` (stereo not drawn) [ACV-15] is 37.3 µM; for `O=C(CC1S/C(=N/N=C/c2ccc(C(=O)O)cc2)NC1=O)Nc1ccc(N2CCCC2)cc1` (stereo not drawn) [ACV-16] it is 6.79 µM; for `O=C(CC1S/C(=N/N=C/c2ccc(O)c(O)c2O)NC1=O)Nc1ccc(N2CCCC2)cc1` (stereo not drawn) [ACV-17(3)] it is 1.01 µM.
Same read-out and setting: the figure for `O=C(CC1S/C(=N/N=C/c2ccc(O)c(O)c2O)NC1=O)Nc1ccc(N2CCCC2)cc1` (stereo not drawn) [ACV-17(4)] is 1.56 µM; for `O=C(CC1S/C(=N/N=C/c2ccc(O)c(O)c2O)NC1=O)Nc1ccc(N2CCCC2)cc1` (stereo not drawn) [ACV-17* (P1)] it is 2.36 µM.
As to `O=C(CC1S/C(=N/N=C/c2ccc(O)c(O)c2O)NC1=O)Nc1ccc(N2CCCC2)cc1` (stereo not drawn) [ACV-17* (P2)], the IC50 is 3.37 µM.
Still for that read-out and setting: with `COC(=O)c1ccc(-c2ccc(/C=N/N=C3\NC(=O)C(CC(=O)Nc4ccc(N5CCCC5)cc4)S3)cc2)cc1` (stereo not drawn) [ACV-20] the figure was 28.6 µM; with `CN(C)c1ccc(/C=N/N=C2\NC(=O)C(CC(=O)Nc3ccc(N4CCCC4)cc3)S2)cc1` (stereo not drawn) [ACV-21], 3.69 µM.
The same measure, in the same setting: the figure for `O=C(CC1SCC(C(=O)N/N=C/c2cccnc2)NC1=O)Nc1ccc(N2CCCC2)cc1` (stereo not drawn) [ACV-24] is 65.3 µM; for `COc1cc(/C=N/NC(=O)C2CSC(CC(=O)Nc3ccc(N4CCCC4)cc3)C(=O)N2)ccc1O` (stereo not drawn) [ACV-25] it is 60.9 µM.
The same measure, in the same setting: with `O=C(CC1S/C(=N/N=C/c2ccc3cccnc3n2)NC1=O)Nc1ccc(N2CCCC2)cc1` (stereo not drawn) [ACV-26] the figure was 16.6 µM; with `Cc1ccc(/C=N/N=C2\NC(=O)C(CC(=O)Nc3ccc(N4CCCC4)cc3)S2)cc1F` (stereo not drawn) [ACV-27], 33.9 µM.
Consider `O=C(CC1S/C(=N/N=C/c2cncnc2)NC1=O)Nc1ccc(N2CCCC2)cc1` (stereo not drawn) [ACV-28], for which the concentration for half-maximal inhibition (IC50) was 44.6 µM.
On the same count and under the same terms, the figure for `CC(C)(C)c1ccc(/C=N/N=C2\NC(=O)C(CC(=O)Nc3ccc(N4CCCC4)cc3)S2)cc1` (stereo not drawn) [ACV-29] is 39 µM and 15.5 µM; for `O=C(CC1S/C(=N/C(=O)c2ccccc2)NC1=O)Nc1ccc(N2CCCC2)cc1` (stereo not drawn) [ACV-30] it is 39 µM; for `O=C(CC1S/C(=N/Cc2cccnc2)NC1=O)Nc1ccc(N2CCCC2)cc1` (stereo not drawn) [ACV-31] it is 404 µM.
Same read-out and setting: the figure for `O=C(CC1S/C(=N/N=C/c2cccc(-c3ccc(C(=O)O)cc3)c2)NC1=O)Nc1ccc(N2CCCC2)cc1` (stereo not drawn) [ACV-32] is 23.5 µM; for `O=C(Cc1cccnc1)/N=C1\NC(=O)C(CC(=O)Nc2ccc(N3CCCC3)cc2)S1` (stereo not drawn) [ACV-33] it is 56.2 µM.
Still for that read-out and setting: the figure for `O=C(CC1SCC(C(=O)N/N=C/c2ccc(O)c(O)c2O)NC1=O)Nc1ccc(N2CCCC2)cc1` (stereo not drawn) [ACV-34] is 7.9 µM; for `O=C(CC1S/C(=N/N=C/c2ccc(O)c(O)c2)NC1=O)Nc1ccc(N2CCCC2)cc1` (stereo not drawn) [ACV-36 (1)] it is 10 µM.
In the case of `O=C(CC1S/C(=N/N=C/c2ccc(O)c(O)c2)NC1=O)Nc1ccc(N2CCCC2)cc1` (stereo not drawn) [ACV-36 (2)], the half-maximal inhibitory concentration (IC50) turned out to be 24.5 µM.
On the same count and under the same terms, the figure for `COc1cccc(/C=N/N=C2\NC(=O)C(CC(=O)Nc3ccc(N4CCCC4)cc3)S2)c1OC` (stereo not drawn) [ACV-37] is 114 µM; for `COc1ccc(NC(=O)CC2S/C(=N/N=C/c3cccnc3)NC2=O)cc1OC` (stereo not drawn) [ACV-38] it is 165 µM.
Turning to `O=C(CC1S/C(=N/N=C/c2ccc(Cl)nc2)NC1=O)Nc1ccc(N2CCCC2)cc1` (stereo not drawn) [ACV-39], the half-inhibitory concentration (IC50) amounted to 26.3 µM.
The same measure, in the same setting: with `O=C(Cc1cnc(NC(=O)Cc2cccnc2)s1)Nc1ccc(Br)cc1` [ACV-41] the figure was 1450 µM; with `COc1ccc(-c2ccc3nc(-c4ccco4)cc(C(=O)NCCc4ccc(N(C)C)cc4)c3c2)cc1OC` [ACV-43], 9100 µM; with `COc1ccc(-c2ccc3nc(-c4ccco4)cc(C(=O)Nc4ccc(N5CCN(C)CC5)cc4)c3c2)cc1OC` [ACV-44], 101 µM.
Consider `CN1CCN(c2ccc(NC(=O)Cc3cnc(NC(=O)Cc4cccnc4)s3)cc2)CC1` [ACV-46], for which the concentration for half-maximal inhibition (IC50) came out at 88.4 µM.
On the same count and under the same terms, with `O=C(Cc1cnc(NC(=O)Nc2cc(F)c(F)cc2F)s1)Nc1ccc(N2CCCC2)cc1` [ACV-47] the figure was 14400 µM.
Still for that read-out and setting: the figure for `O=C(Cc1cnc(NC(=O)Cc2cccnc2)s1)Nc1ccc(N2CCCC2)cc1` [ACV-48 (1)] is 403 µM; for `O=C(Cc1cnc(NC(=O)Cc2cccnc2)s1)Nc1ccc(N2CCCC2)cc1` [ACV-48 (2)] it is 607 µM.
The same measure, in the same setting: the figure for `O=C(Cc1cnc(NC(=O)Nc2ccc(F)cc2)s1)Nc1ccc(N2CCCC2)cc1` [ACV-49] is 17.2 µM; for `COc1cc(NC(=O)Nc2ncc(CC(=O)Nc3ccc(N4CCCC4)cc3)s2)cc(OC)c1OC` [ACV-50] it is 7.2 µM; for `O=C(Cc1cnc(NC(=O)Nc2cccc(C(F)(F)F)c2)s1)Nc1ccc(N2CCCC2)cc1` [ACV-51] it is 24.1 µM.
For the compound `COc1ccc(NC(=O)Nc2ncc(CC(=O)Nc3ccc(N4CCCC4)cc3)s2)cc1OC` [ACV-53], the concentration for half-maximal inhibition (IC50) came to 12.5 µM.
On the same count and under the same terms, with `O=C(Cc1cnc(NC(=O)Nc2cccc(Cc3ccccc3)c2)s1)Nc1ccc(N2CCCC2)cc1` [ACV-54] the figure was 9.31 µM; with `O=C(Cc1cnc(NC(=O)Nc2cccnc2)s1)Nc1ccc(CN2CCCC2)cc1` [ACV-55], 23 µM.
The same measure, in the same setting: the figure for `O=C(COCc1cccnc1)N1CCN(C(=O)c2ccc(CCN3CCCC3)cc2)CC1` [ACV-56] is 64.1 µM; for `O=C(COCc1ccc(CN2CCCC2)cc1)N1CCN(C(=O)c2cccnc2)CC1` [ACV-57] it is 336 µM.
The same measure, in the same setting: with `C(=N\Nc1nc(-c2ccc(OCc3ccccc3)cc2)cs1)/c1cccnc1` [ACV-59] the figure was 759 µM; with `NC(=S)N/N=C/c1ccc(O)c(O)c1O` [ACV-60], 0.364 µM; with `O=C(Nc1csc(N/N=C/c2ccc(O)c(O)c2O)n1)c1ccc(CCN2CCCC2)cc1` [ACV-61], 3.94 µM.
For `Oc1ccc(/C=N/Nc2nc(-c3ccc(N4CCCC4)cc3)cs2)c(O)c1O` [ACV-62], the half-maximal inhibitory concentration (IC50) came to 0.861 µM.
Take `CN1CCN(CCNC(=O)CC2S/C(=N/N=C/c3ccc(O)c(O)c3O)NC2=O)CC1` (stereo not drawn) [ACV-63 (2)]: the IC50 worked out at 22.5 µM.
Still for that read-out and setting: with `O=C(O)c1ccc(-c2csc(N/N=C/c3ccc(O)c(O)c3O)n2)cc1` [ACV-64] the figure was 5.22 µM.
Still for that read-out and setting: the figure for `CN(C)c1ccc(CCNC(=O)CC2SC(N/N=C/c3ccc(O)c(O)c3O)=NC2=O)cc1` (stereo not drawn) [ACV-66] is 11.9 µM.

Staying with this experiment, now noted: versus Scaffold 2 (FIG. 7).
As for `O=C(N/N=C/c1c(O)cc(O)cc1O)c1cc(-c2ccco2)nc2ccccc12` [ACV-03], the “improvement in binding affinity compared to the original scaffold” value is “more than 5 fold”.
Still for that read-out and setting: the entry for `O=C(N/N=C/c1ccc(N2CCCC2)cc1)c1cc(-c2ccco2)nc2ccccc12` [ACV-05] is “more than 5 fold”.
